From patent publication US10604528B2, “Galunisertib crystalline form, preparation method thereof and use thereof” (Crystal Pharmaceutical (Suzhou) Co., Ltd., priority 2016, dated 2020)
In brackets after ≈: the same amount, converted by molar mass. Entries after “also recorded” stand apart in the source; their conditions may differ. Where two headings read alike, the source gives them in different places.

How the values were obtained:
Type in all cases: physicochemical
[1] = Hygroscopicity by dynamic vapor sorption (DVS); conditions: for Hygroscopicity class / Weight gain at 80% RH: 80% RH; for Hygroscopicity class: Chinese Pharmacopoeia 2015 definition; for Weight gain at 80% RH / Weight gain at 95% RH: DVS
Method: Dynamic vapor sorption (DVS) was applied to test hygroscopicity of Form A and Form 1 disclosed in WO2007018818A1 with about 10 mg of samples.
Description and definition of hygroscopicity (Chinese Pharmacopoeia 2015 edition, 9103 General drug hygroscopic test guidelines, test at 25° C.±1° C., 80% RH).

[2] = Kinetic solubility in FaSSIF, FeSSIF and water (HPLC)
Method: Form A of the present disclosure and Form 1 of the prior art were suspended into FaSSIF (Fasted state simulated intestinal fluids, pH=6.5), FeSSIF (Fed state simulated intestinal fluids, pH=5.0), SGF (Simulated gastric fluids, pH=1.8) and water to get saturated solutions. After equilibrated for 1 h, 4 h and 24 h, concentrations of the saturated solutions were measured by HPLC.

[3] = Particle size distribution (laser particle size analyzer, wet process)
Method: The particle size distribution test in the present disclosure is acquired by the S3500 laser particle size analyzer of Microtrac. Microtrac S3500 is equipped with the SDC (Sample Delivery Controller). The test is carried out by wet process, and the dispersion medium is Isopar G. The parameters are as follow: […]

[4] = Mechanical stability (manual grinding, XRPD); conditions: ground manually for 5 minutes in mortar
Method: Solid sample of Form A of the present disclosure was ground manually for 5 minutes in mortar. The XRPD pattern overlay of the solids before and after grinding is substantially as depicted in FIG. 9 (top: XRPD pattern before grinding, bottom: XRPD pattern after grinding).

[5] = Long-term and accelerated solid-state stability (XRPD)
Method: Solid samples of Form A and Form 1 were stored under different conditions of 25° C./60% RH, 40° C./75% RH. 60° C./75% RH and 80° C.

Row | Weight gain at 80% RH [1] [%] | Weight gain at 95% RH [1] [%] | solubility ([2]; FaSSIF pH=6.5, 1 h) [µg/mL] | solubility ([2]; FaSSIF pH=6.5, 4 h) [µg/mL] | solubility ([2]; FaSSIF pH=6.5, 24 h) [µg/mL] | solubility ([2]; FeSSIF pH=5.0, 1 h) [µg/mL] | solubility ([2]; FeSSIF pH=5.0, 4 h) [µg/mL] | solubility ([2]; FeSSIF pH=5.0, 24 h) [µg/mL] | solubility ([2]; H2O, 1 h) [µg/mL] | solubility ([2]; H2O, 4 h) [µg/mL] | solubility ([2]; H2O, 24 h) [µg/mL] | D10 ([3]; ultrasonication time 0 s) [μm] | D50 ([3]; ultrasonication time 0 s) [μm] | D90 ([3]; ultrasonication time 0 s) [μm] | MV (average particle size calculated by volume) ([3]; ultrasonication time 0 s) [μm] | D10 ([3]; ultrasonication time 30 s) [μm] | D50 ([3]; ultrasonication time 30 s) [μm] | D90 ([3]; ultrasonication time 30 s) [μm] | MV (average particle size calculated by volume) ([3]; ultrasonication time 30 s) [μm] | SMILES | Hygroscopicity class [1] | also measured
1 | 0.15 | 0.23 | 230 (≈ 623 µM) | 270 (≈ 731 µM) | 520 (≈ 1410 µM) | 480 (≈ 1300 µM) | 820 (≈ 2220 µM) | 640 (≈ 1730 µM) | 170 (≈ 460 µM) | 250 (≈ 677 µM) | 310 (≈ 839 µM) | 50.28 | 170.3 | 356.4 | 190.8 | 34.37 | 106.2 | 210.5 | 116.1 | Cc1cccc(-c2nn3c(c2-c2ccnc4ccc(C(N)=O)cc24)CCC3)n1 [Form A, 2-(6-methyl-pyridin-2-yl)-3-[6-amido-quinolin-4-yl)-5,6-dihydro-4H-pyrrolo[1,2-b]pyrazole] | non-hygroscopic or almost non-hygroscopic | Solid Form after DVS test ([1]; XRPD after DVS test): does not change after DVS test; also recorded: Form A (no change); solubility relative to Form 1 ([2]; FaSSIF pH=6.5, 24 h): ten times higher than that of Form 1; D10 ([3]; ultrasonication time 60 s): 29.37 μm; D50 ([3]; ultrasonication time 60 s): 92.81 μm; D90 ([3]; ultrasonication time 60 s): 192.2 μm; MV (average particle size calculated by volume) ([3]; ultrasonication time 60 s): 104.1 μm; D10 ([3]; ultrasonication time 90 s): 26.40 μm; D50 ([3]; ultrasonication time 90 s): 83.69 μm; D90 ([3]; ultrasonication time 90 s): 167.2 μm; MV (average particle size calculated by volume) ([3]; ultrasonication time 90 s): 91.94 μm; Crystalline form (XRPD pattern) after grinding [4]: doesn't change significantly; also recorded: No form change; Time the form keeps stable ([5]; 25° C./60% RH and 40° C./75% RH): at least 12 months; Solid form after storage ([5]; 25° C./60% RH, 12 months): Form A; Solid form after storage ([5]; 40° C./75% RH, 12 months): No form change; also recorded: Form A; Time the form keeps stable ([5]; 60° C./75% RH and 80° C.): at least 2 weeks; Solid form after storage ([5]; 60° C./75% RH, 2 weeks): Form A; Solid form after storage ([5]; 80° C., 2 weeks): Form A
2 | 0.33 | 0.53 | 58 (≈ 157 µM) | 51 (≈ 138 µM) | 52 (≈ 141 µM) | 120 (≈ 325 µM) | 110 (≈ 298 µM) | 120 (≈ 325 µM) | 56 (≈ 152 µM) | 55 (≈ 149 µM) | 55 (≈ 149 µM) | 33.41 | 56.97 | 95.11 | 62.25 | 24.89 | 42.56 | 68.40 | 45.75 | Cc1cccc(-c2nn3c(c2-c2ccnc4ccc(C(N)=O)cc24)CCC3)n1 [Form 1, 2-(6-methyl-pyridin-2-yl)-3-[6-amido-quinolin-4-yl)-5,6-dihydro-4H-pyrrolo[1,2-b]pyrazole, reference compound] | slightly hygroscopic | solubility ([2]; FaSSIF and water, pH 6.5, fassif, thermodynamic from solid, in both FaSSIF and H2O, all sampling points, read-out: solubility): < 60 µg/mL; D10 ([3]; ultrasonication time 60 s): 22.40 μm; D50 ([3]; ultrasonication time 60 s): 37.88 μm; D90 ([3]; ultrasonication time 60 s): 59.87 μm; MV (average particle size calculated by volume) ([3]; ultrasonication time 60 s): 40.41 μm; D10 ([3]; ultrasonication time 90 s): 20.94 μm; D50 ([3]; ultrasonication time 90 s): 35.58 μm; D90 ([3]; ultrasonication time 90 s): 55.95 μm; MV (average particle size calculated by volume) ([3]; ultrasonication time 90 s): 37.83 μm; Solid form after storage ([5]; 25° C./60% RH, 12 months): Form 1; Solid form after storage ([5]; 40° C./75% RH, 12 months): Form 1; Solid form after storage ([5]; 60° C./75% RH, 2 weeks): Form 1; Solid form after storage ([5]; 80° C., 2 weeks): partially converts to Form A; also recorded: Form 1 + Form A
